Results: paper PMC11856857, “Protease-Resistant, Broad-Spectrum Antimicrobial Peptides with High Antibacterial and Antifungal Activity” (Life, 2025)
Values after ≈ are worked out from the molar mass of the structure shown. “Also recorded” adds a separate entry of the source. Read-outs that look alike come from different tables or passages of the source. Where a SMILES comes first, the peptide text is derived from it. Where no end group is shown, it is not given here.

Columns and labels:
P. aeruginosa ATCC 27853 = format: cell-based, Pseudomonas aeruginosa
human erythrocytes = format: cell-based; settings: pH 7.2
Procedure: Permission to acquire the fresh human blood used for this experiment was granted by the […] University Local Ethics Committee (No. 2023-2/32, 27 January 2023). First, 30 μL of fresh male human blood was suspended with 10 mL of autoclaved Tris saline buffer (TBS buffer, 10 mM Tris, 150 mM NaCl, pH 7.2) and centrifuged thrice for 5 min at 1500 rpm. […] Three replicates were performed for each peptide dose. A sample of 20% Triton-X 100/DMSO was used as a positive control. After incubation, the 96-well plate was centrifuged at 1500 rpm for 10 min. Absorbance was measured at 414 nm using a microplate reader (Gen5 Synergy HT BioTek). The % lysis of the peptide was calculated as follows:% lysis = OD414 - OD414 (blank)/OD414 (total lysis - blank) × 100

C. albicans ATCC 10231 = format: cell-based, Candida albicans
E. coli ATCC 25922 = format: cell-based, Escherichia coli
S. aureus ATCC 29213 [1] = format: cell-based, Staphylococcus aureus
S. aureus ATCC 29213 [2] = experiment: Resistance development by serial passages; format: cell-based, Staphylococcus aureus; settings: for MIC: Staphylococcus aureus
[3] = test system: resistant Klebsiella pneumoniae (KP) strain; format: cell-based
proteinase K = molecular target: T1, proteinase K (Parengyodontium album, UniProt P06873); experiment: Stability toward enzymatic degradation (protease resistance assay); format: in vitro ADME; settings: peptide 1 mg/mL in TBS (50 mM Tris, 150 mM NaCl, pH 7.6) with 10% DMSO; proteinase K 1 mg/mL (30 U/mg); 37 °C, overnight (also 10 min, 30 min); HPLC at 214 nm
T1 construct: purchased Qiagen
T1 sequence (P06873 106-384): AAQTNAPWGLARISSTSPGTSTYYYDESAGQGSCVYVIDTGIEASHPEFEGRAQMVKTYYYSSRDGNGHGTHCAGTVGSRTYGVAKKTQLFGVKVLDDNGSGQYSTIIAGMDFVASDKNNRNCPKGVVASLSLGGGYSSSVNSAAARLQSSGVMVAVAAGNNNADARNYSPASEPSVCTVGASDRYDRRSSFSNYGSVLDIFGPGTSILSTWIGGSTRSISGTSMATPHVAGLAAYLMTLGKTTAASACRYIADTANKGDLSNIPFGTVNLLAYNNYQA
Procedure: Peptide solutions were prepared at a final concentration of 1 mg/mL in TBS buffer (50 mM Tris, 150 mM NaCl, pH 7.6) including 10% DMSO. The proteinase K solution was adjusted to 1 mg/mL (enzyme activity = 30 U/mg). The peptide solution was then incubated at 37 °C overnight in an orbital shaker. After incubation, the reaction was blocked by adding 1% TFA (100 µL) in water. Peptide solutions with/without the proteinase K enzyme were analyzed at 214 nm using HPLC with an analytic column (AdvanceBio Peptide Plus, 2.1 × 150 mm, 2.7 µm, LC column, Agilent Technologies, Santa Clara, CA, USA) following the linear gradient method (30 min in a range of 5–80% acetonitrile including 0.025% TFA). MIC experiments were repeated to measure biological activities after treating the peptides with proteinase K.

HaCaT cell line = format: cell-based, human; settings: 24 h
Procedure: (§1) 3T3 and HaCaT cells were grown in DMEM consisting of 1% pen/strep and 10% FBS. A total of 5 × 10^4 cells were loaded into each well of a 96-well plate and incubated at 37 °C using a 5% CO2 incubator. All samples were measured in triplicate between 0.5–32 µg/mL concentrations and incubated at 37 °C for 24 h in a 5% CO2 incubator. Only cells and Mag-2 were used as negative and positive controls, respectively. After 24 h, cell cytotoxicity was evaluated using a cell proliferation kit (MTT, Roche, Basel, Switzerland) following the kit protocol and analyzed at 550 nm and 690 nm using a microplate reader (Gen5 Synergy HT BioTek). The concentration of peptides that killed 50% of the cells was determined as the IC50 in the cytotoxicity experiments.

3t3 cell line = format: cell-based, mouse; settings: 24 h
Procedure: as §1

Compound | MIC P. aeruginosa (P. aeruginosa ATCC 27853) | MIC C. albicans (C. albicans ATCC 10231) | MIC E. coli (E. coli ATCC 25922) | MIC S. aureus (S. aureus ATCC 29213 [1]) | also measured
CC(C)C[C@@H](NC(=O)[C@H](N)CCCNC(=N)N)C(=O)N[C@H](CC(C)C)C(=O)N[C@H](CCCNC(=N)N)C(=O)N[C@H](CC(C)C)C(=O)N[C@H](CC(C)C)C(=O)N[C@H](CC(C)C)C(=O)N[C@H](CC(C)C)C(=O)N[C@H](CCCNC(=N)N)C(=O)N[C@H](CC(C)C)C(=O)N[C@H](CC(C)C)C(=O)N[C@H](CCCNC(=N)N)C(N)=O [D-TN1] (HELM PEPTIDE1{[dR].[dL].[dL].[dR].[dL].[dL].[dL].[dL].[dR].[dL].[dL].[dR].[am]}$$$$V2.0) | 4 µg/mL (≈ 2.59 µM) | 1 µg/mL (≈ 0.646 µM) | 8 µg/mL (≈ 5.17 µM) | 4 µg/mL (≈ 2.59 µM) | HC50 (human erythrocytes): 77.63 µg/mL
CC(C)C[C@@H](NC(=O)[C@@H](CC(C)C)NC(=O)[C@@H](CC(C)C)NC(=O)[C@@H](CCCNC(=N)N)NC(=O)[C@@H](CC(C)C)NC(=O)[C@@H](CC(C)C)NC(=O)[C@@H](CCCNC(=N)N)NC(=O)[C@@H](CC(C)C)NC(=O)[C@@H](CC(C)C)NC(=O)[C@H](N)CCCNC(=N)N)C(N)=O [D-TN3] (HELM PEPTIDE1{[dR].[dL].[dL].[dR].[dL].[dL].[dR].[dL].[dL].[dL].[am]}$$$$V2.0) | 4 µg/mL (≈ 3.13 µM) | 0.25 µg/mL (≈ 0.196 µM) | 2 µg/mL (≈ 1.57 µM) | 8 µg/mL (≈ 6.26 µM) | HC50 (human erythrocytes): 32.63 µg/mL
CNC(C)C1CCC(N)C(OC2C(N)CC(N)C(OC3OCC(C)(O)C(NC)C3O)C2O)O1 (centres unmarked) [gentamicin] |  |  |  |  | MIC value in the sixth passage (S. aureus ATCC 29213 [2]; S. aureus ATCC 29213, continuous serial passaging): 8 µg/mL (≈ 16.8 µM); MIC (S. aureus ATCC 29213 [2]; ATCC29213, read-out: MIC value in the sixth passage): 8 µg/mL (≈ 16.8 µM); MIC (S. aureus ATCC 29213 [2]; ATCC29213, read-out: initial MIC value): 1 µg/mL (≈ 2.09 µM)
Polymyxin B [reference compound] |  |  |  |  | MIC KP1 ([3]; Table S2, strain KP1): 16 µg/mL; MIC KP2 ([3]; Table S2, strain KP2): 2 µg/mL; MIC KP8 ([3]; Table S2, strain KP8): 64 µg/mL; MIC KP9 ([3]; Table S2, strain KP9): 2 µg/mL; MIC KP13 ([3]; Table S2, strain KP13): 16 µg/mL; MIC KP22 ([3]; Table S2, strain KP22): 8 µg/mL; MIC KP28 ([3]; Table S2, strain KP28): 16 µg/mL; MIC KP29 ([3]; Table S2, strain KP29): 16 µg/mL; MIC KP35 ([3]; Table S2, strain KP35): 8 µg/mL; MIC KP40 ([3]; Table S2, strain KP40): 4 µg/mL; MIC KP41 ([3]; Table S2, strain KP41): 4 µg/mL; MIC KP42 ([3]; Table S2, strain KP42): 8 µg/mL; MIC KP46 ([3]; Table S2, strain KP46): 16 µg/mL; MIC KP52 ([3]; Table S2, strain KP52): 8 µg/mL
RAARAAARAAR-NH2 [TN6A5] | >1024 µg/mL | 128 µg/mL | 1024 µg/mL | >1024 µg/mL | 
RALRALARALR-NH2 [TN6A1] | 256 µg/mL | 256 µg/mL | 128 µg/mL | 128 µg/mL | 
RIIRIIIRIIR-NH2 [TN6I1] | 128 µg/mL | 128 µg/mL | 32 µg/mL | 16 µg/mL | 
RILRILIRLIR-NH2 [TN6I2] | 32 µg/mL | 128 µg/mL | 16 µg/mL | 2 µg/mL | 
RLLRLLLLRLLR-NH2 [TN1] | 32 µg/mL | 0.5 µg/mL | 2 µg/mL | 4 µg/mL | 
RLLRLLLRLLR [D/L-TN6, TN6 template, arginine in L-form, leucine in L- and D-forms] |  |  |  |  | MIC C. albicans (C. albicans ATCC 10231; CLSI M27-A3): 8 µg/mL
RLLRLLLRLLR-NH2 [TN6] | 8 µg/mL | 0.5 µg/mL | 2 µg/mL | 2 µg/mL | Stability toward proteinase K (HPLC) (proteinase K): fragmented into different-sized molecules; also recorded: disappeared; IC50 HaCaT (HaCaT cell line): 15.32 µg/mL; IC50 3t3 (3t3 cell line): 29.80 µg/mL
RLLRLLRLLL [TN3-carboxy] | 32 µg/mL | 1 µg/mL | 4 µg/mL | 16 µg/mL | 
RLLRLLRLLL-NH2 [TN3-amide] | 4 µg/mL | 2 µg/mL | 8 µg/mL | 8 µg/mL | 
RLLRLLRLLLL-NH2 [TN8] | 256 µg/mL | 0.5 µg/mL | 4 µg/mL | 8 µg/mL | 
RLLRLLRLLLRLLRLLR-NH2 [TN6(2)] | 64 µg/mL | 32 µg/mL | 16 µg/mL | 16 µg/mL | 
RRLLRLLLRLLR-NH2 [RTN6] | 8 µg/mL | 4 µg/mL | 2 µg/mL | 1 µg/mL | 
RVLRVLRVLL-NH2 [TN3V1] | 32 µg/mL | 4 µg/mL | 16 µg/mL | 8 µg/mL | 
RVVRVVRVVV-NH2 [TN3V9] | 256 µg/mL | 128 µg/mL | 64 µg/mL | 16 µg/mL | 
